In article PMC11170107, “Development of a new hazard scoring system in primary neuronal cell cultures for drug-induced acute neuronal toxicity identification in early drug discovery” (Frontiers in Pharmacology, 2024):

Experiments:
[1] = WHO adverse drug reactions VigiBase; ref Kumlien and Lundberg, 2010; cited from earlier work
[2] = ref National library of medicine, Daylimed; cited from earlier work
[3] = cited from earlier work; for Free Cmax highest: Supplementary Table S1
[4] = seizure ADR frequency in SIDER; ref Campillos et al., 2008; Kuhn et al., 2010; cited from earlier work
[5] = system: rat primary cortical neurons; test: MEA hazard scoring in rat primary cortical neuronal cultures; conditions: statistical tolerance interval of the ΔΔ% effect; One-sided interval
Method: At DIV28, spontaneous neuronal activity obtained for 30 min in culture solution was defined as the baseline.
Data analysis was captured using AxIs suite software (Axion Biosystems Inc., version 3.6.2) and further analyzed using GraphPad Prism (version 9.00; GraphPad Software Inc., San Diego, CA). […] An active well should have more than 40% active electrodes. All wells below this threshold were discarded upon these quality criteria. For the downstream statistical analysis, the data on each MEA parameter was first expressed as the ratio of exposed wells (percentage change between baseline and the treatment) and then normalized to the average of the control within the same plate. i.e., Baseline corrected ratios of n= 7 or eight wells were averaged per condition. Each well of the MEA served as its own control, and the changes in the electrical activity elicited by the treatments were expressed as a percentage of that control activity and normalized to the wells treated with the vehicle control dimethyl sulfoxide (DMSO). […] Differences were determined using the non-parametric Wilcoxon Mann Whitney test; p-values below 0.05 were considered significant. Data are expressed as means ± S.E.M.
Thereafter, based on the effects of vehicles and positive controls, we determined the cut-off points between the different effect zones according to the key parameters selected as described in the previous subsection. The zones were defined as follows. The “no effect” zone reflects parameter changes that are most likely within vehicle variability. The “mild” and “strong” zones are differentiated bidirectionally showing mild and strong effects.
The respective hazard class was determined by a cumulative scoring of individual parameters using a scoring matrix, which was based on the following three fundamental components: (1) selection of the six key relevant parameters, (2) defining the cutoffs for the level of effect, and (3) defining weighted points per parameter for the level of hazard potential. The scoring matrix concluded with the addition of a weighted point algorithm to discriminate distinct degrees of neuronal hazard. […] The weighted points were defined on the importance of a parameter (and the direction of effect), as well as the identification of an expected hazard for different pharmacological modes of action. The overall hazard score is derived from the sum of all weighted parameters, which could be converted into a specific hazard label. The weighted points and total score range associated with the various hazard labels were optimized using an iterative process.

Row | Structure (SMILES) | Percentage seizures of total number of ADRs [1] [%] | FDA prescription information at therapeutic dose (Convulsion/ Seizure/Lower the seizure threshold/withdrawal) [2] | Free Cmax highest [3] [nM] | SIDER ADR on-/off-label [4] | other results
1 | CC1(C)S[C@@H]2[C@H](NC(=O)[C@H](N)c3ccc(O)cc3)C(=O)N2[C@H]1C(=O)O [Amoxicillin] | 0.1648 | on label | 25830 | very rare, postmarketing | 
2 | C[C@]12N[C@H](Cc3ccccc31)c1ccccc12 [Dizocilpine (MK-801), Dizocilpine] |  |  |  |  | Area.Under.Cross.Correlation Lower.TI [5]: -94.33; Area.Under.Cross.Correlation Upper.TI [5]: -47.25; Burst.Duration...Avg.(s. Lower.TI) [5]: -41.38; Burst.Duration...Avg.(s. Upper.TI) [5]: 248.8; Mean.Firing.Rate..Hz. Lower.TI [5]: -92.35; Mean.Firing.Rate..Hz. Upper.TI [5]: -66.07; Median.Mean.ISI Lower.TI [5]: -38.05; Median.Mean.ISI Upper.TI [5]: 23.07
3 | CNCCCC12CCC(c3ccccc31)c1ccccc12 [Maprotiline] | 7.924 |  | 73.3 | no frequency information | 
4 | Cc1ccccc1C(OCCN(C)C)c1ccccc1 (stereo not shown) [Orphenadrine] | 0.6083 | not found on label | 10 | not found on label | 
5 | NC[C@H]1CC[C@H](C(=O)O)CC1 [Tranexamic Acid] | 1.5 | On label | 101250 | postmarketing | free Cmax concentration in man [3]: > 100000 nM
6 | CN(C)CCCN1c2ccccc2CCc2ccccc21 [Imipramine] | 1.538 | On label | 53 |  | 
7 | CC(C)(C)NCC(O)c1ccc(O)c(CO)c1 (stereo not shown) [Salbutamol] | 0.3555 |  | 56 |  | 
8 | CC(C)(C)C(O)/C=C/c1ccc2c(c1)OCO2 (stereo not shown) [Stiripentol] |  |  | 670 |  | 
9 | C[C@@](Cc1ccc(O)c(O)c1)(NN)C(=O)O [Carbidopa] | 0.8032 | on label | 550 | no frequency information | 
10 | NC12CC3CC(CC(C3)C1)C2 [Amantadine] |  |  | 2840 |  | 
11 | CC[C@@H](C(N)=O)N1CCCC1=O [Levetiracetam] | 15.5539 | On label | 276350 | 2.38% - 6% | 
12 | O=C1CCc2ccc(OCCCCN3CCN(c4cccc(Cl)c4Cl)CC3)cc2N1 [Aripiprazole] | 1.175 | on label | 11 | Postmarketing | 
13 | CC(=O)/N=c1/sc(S(N)(=O)=O)nn1C [Methazolamide] | 0 | On label | 20400 | no frequency information | 
14 | OC(CCN1CCCCC1)(c1ccccc1)C1CCCCC1 (stereo not shown) [Trihexyphenidyl] | 0.7979 | not found on label | 24 | not found on label | 
15 | OC[C@@H](O)[C@@H](O)[C@H](O)[C@@H](O)CO [Sorbitol] | 0.6135 | not found on label |  | no frequency information | 
16 | NNC(=O)c1ccncc1 [Isoniazid] | 0.676 | on label | 57000 | no frequency information | 
17 | Clc1ccc2c(c1)C(N1CCNCC1)=Nc1ccccc1O2 [Amoxapine] | 4.864 | on label | 10 | no frequency information | 
18 | COC(=O)C(c1ccccc1)C1CCCCN1 (stereo not shown) [Methylphenidate] |  | On label | 165 | postmarketing | 
19 | Cn1c(=O)c2c(ncn2C)n(C)c1=O [Caffeine] |  |  | 23300 |  | Area.Under.Cross.Correlation Lower.TI [5]: 6.336; Area.Under.Cross.Correlation Upper.TI [5]: 111.5; Burst.Duration...Avg.(s. Lower.TI) [5]: -5.73; Burst.Duration...Avg.(s. Upper.TI) [5]: 16.22; Mean.Firing.Rate..Hz. Lower.TI [5]: 8.914; Mean.Firing.Rate..Hz. Upper.TI [5]: 94.17; Median.Mean.ISI Lower.TI [5]: -1.251; Median.Mean.ISI Upper.TI [5]: 10.27
20 | Cc1ccc(F)c(NC(=O)Nc2ccc(-c3cccc4[nH]nc(N)c34)cc2)c1 [Linifanib] | 0 |  |  |  | 
21 | CN(C)CCCN1c2ccccc2Sc2ccc(Cl)cc21 [Chlorpromazine] | 1.468 | On label | 54 |  | 
22 | Cc1ncc(CO)c(CO)c1O [Pyridoxine] | 0.4851 | not found on label | 280 | not found on label | 

Row | Structure (SMILES) | Percentage seizures of total number of ADRs [1] [%] | FDA prescription information at therapeutic dose (Convulsion/ Seizure/Lower the seizure threshold/withdrawal) [2] | Free Cmax highest [3] [nM] | SIDER ADR on-/off-label [4] | other results
23 | C[C@@H]1C[C@H]2[C@@H]3CCC4=CC(=O)C=C[C@]4(C)[C@@]3(F)[C@@H](O)C[C@]2(C)[C@@]1(O)C(=O)CO [Dexamethasone] | 0.5218 | On label | 25 | no frequency information | 
24 | CC(C)NCC(O)COc1cccc2ccccc12 (stereo not shown) [Propranolol] |  |  | 120 |  | 
25 | CN1CCN(C2=Nc3cc(Cl)ccc3Nc3ccccc32)CC1 [Clozapine] |  |  | 70 |  | 
26 | CN1CCc2cccc3c2[C@H]1Cc1ccc(O)c(O)c1-3 [Apomorphine] | 0.382 | not found on label | 0.4 | not found on label | 
27 | CC(N)Cc1ccccc1 (stereo not shown) [Amphetamine] | 1.043 |  |  |  | 
28 | COc1ccc(Cl)cc1[C@]1(F)C(=O)Nc2cc(C(F)(F)F)ccc21 [Flindokalner] |  |  | 340 |  | 
29 | CN(C)CCCN1c2ccccc2CCc2ccc(Cl)cc21 [Clomipramine] |  |  | 9 |  | 
30 | Cc1nccn1CC1CCc2c(c3ccccc3n2C)C1=O (stereo not shown) [Ondansetron] | 1.344 | on label | 51.3 | uncommon | 
31 | CN1CCN(C(c2ccccc2)c2ccccc2)CC1 [Cyclizine] | 1.797 |  | 105 | no frequency information | 
32 | CCN(CC)C(C)C(=O)c1ccccc1 (stereo not shown) [Amfepramone] |  |  | 90 |  | 
33 | NC(=O)N1c2ccccc2C=Cc2ccccc21 [Carbamazepine] | 5.289 | not found on label | 12100 | common | 
34 | CC1CCN(CCCC(=O)c2ccc(F)cc2)CC1 [Melperone] |  |  | 240 |  | 
35 | CC[C@@H]1C(=O)OC[C@@H]1Cc1cncn1C [Pilocarpine] | 0.1965 | not found on label | 375 | not found on label | 
36 | COc1ccc2c3c1O[C@H]1[C@@H](O)C=C[C@H]4[C@@H](C2)N(C)CC[C@@]341 [Codeine] |  |  | 880 |  | 
37 | COc1c(N2C[C@@H]3CCCN[C@@H]3C2)c(F)cc2c(=O)c(C(=O)O)cn(C3CC3)c12 [Moxifloxacin] |  |  | 8134 |  | 
38 | C[C@@H]([C@@H](O)c1ccc(O)cc1)N1CCC(O)(c2ccccc2)CC1 [Traxoprodil (CP-101606), Traxoprodil] |  |  | 94 |  | 
39 | Cn1c(=O)c2[nH]cnc2n(C)c1=O [Theophylline] | 4.2336 |  | 26580 |  | 
40 | COc1cccc2c1C(=O)c1c(O)c3c(c(O)c1C2=O)C[C@@](O)(C(=O)CO)C[C@@H]3O[C@H]1C[C@H](N)[C@H](O)[C@H](C)O1 [Doxorubicin] | 0.3099 | On label | 3990 | postmarketing, uncommon | 
41 | O=C1N(c2ccccc2)c2ccccc2C1(Cc1ccncc1)Cc1ccncc1 [Linopirdine] |  |  | 3000 |  | 
42 | CC(=O)Nc1ccc(O)cc1 [Acetaminophen] | 0.4389 | not found on label | 540 |  | 
43 | CCCC(CCC)C(=O)O [Valproic acid] | 4.854 | on label | 92000 | not found on label | 
44 | CC(CN1c2ccccc2Sc2ccccc21)N(C)C (stereo not shown) [Promethazine] | 1.639 | on label | 72 | no frequency information | 
